Assay results from US8097615B2, “Neurofibrillary labels” (Wista Laboratories Ltd., priority 2001, dated 2012).
“Also recorded” adds a separate entry of the source.

Columns and labels:
neurofibrillary tangles = experiment: Fluorescence labelling of tangles (sections, ifI tangle suspensions); format: binding, human
Protocol: In ifI suspensions such as this, tangles can be seen by blue fluorescence which is […] from that associated with binding of contaminants in the preparation. […] (a) Chemical labelling with the biotinylated benzothiazole analogue shown as 4b in FIG. 4. PHFs were deposited on a carbon-coated grid after Pronase digestion, and incubated briefly with compound 4b, and then incubated with an anti-biotin antibody preparation that had been conjugated with colloidal gold. […] (b) mAb 423 immunolabelling of isolated PHFs after Pronase digestion., followed by incubation with a gold-conjugated goat anti-mouse second antibody as described in Novak et al. 1993 (Novak M, Kabat J, Wischik C M (1993) “Molecular characterisation of the minimal protease-resistant tau unit of the Alzheimers' disease paired helical filament”, EMBO J. 12: 365-370). As shown in this paper, mAb 423 labels PHFs derived from intracellular tangles (which preserve N-terminal tau immunoreactivity in the fuzzy outer coat) poorly, but Pronase digested PHFs strongly.
Serial 16 μm sections are cut from the hippocampus of a case dying with clinically and neuropathologically confirmed AD. […]
A Leitz fluorescence microscope fitted with a photo-multiplyer tube (Model MPV-2) was used to quantitate fluorescence emission. […]

tangle fragments = experiment: Competitive binding assay: displacement of primulin fluorescence from tangle fragments (ifI); parameters: species or system human; details: for competition with / displacement of other ligands at tangles: fluorescence end point
Protocol: IfI material was homogenised in a 0.2 ml glass homogeniser in PBS. To the suspension, test compounds were added to final concentrations ranging from 0.1% to 0.00001%. […] The suspensions were transferred to a glass slide, and examined by fluorescence microscopy across a range of fluorescence filter blocks, covering excitation and emission wavelengths between 380 nm and 570 nm. The end point sought in these observations was displacement of typical primulin fluorescence from tangle fragments.

tau-tau binding = target: T1, tau-tau binding (Homo sapiens, UniProt P10636); experiment: Relief of DMMB inhibition of tau-tau binding by ligands (Preparation 2); format: biochemical; details: for BMax of tau-tau binding: Binding=(BMax×[ligand])/(Kd+[ligand])
T1 construct: a truncated tau protein corresponding to the core fragment and terminating at Ala390-dGA; dGAE which terminates at Glu-391; made in house; host or cells: E. coli BL21 (DE3), pRK172; DE52 flow-through, P11 phosphocellulose, PEG concentration, no heat step (Preparation 2)
T1 sequence (P10636 614-708 limits assumed): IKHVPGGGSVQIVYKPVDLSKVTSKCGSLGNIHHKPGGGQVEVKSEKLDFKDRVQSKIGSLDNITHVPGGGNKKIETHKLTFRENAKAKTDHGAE
Description: 2. using tau proteins prepared in this manner for testing putative ligands in the tau-tau binding assay provided in WO96/30766 to identify substances which have minimal or entirely absent activity as tau-aggregation inhibitors or enhance tau-tau binding at high concentrations; 3. testing putative ligands in the presence of an exemplary potent tau-aggregation inhibitor, such as DMMB, at an inhibitory concentration; 4. putative ligands can be identified by the property that they lack capacity to block tau-tau binding through the repeat domain, but block the inhibitory activity of a potent tau-aggregation inhibitor.
(ii) contacting (a) a tau protein or a derivative thereof containing the tau core fragment bound to a solid phase so as to expose a high affinity tau capture site (e.g. a truncated tau protein corresponding to the core fragment and terminating at Ala390-dGA), with (b) a liquid phase tau protein or derivative thereof capable of binding to the solid phase tau protein or derivative (e.g. dGAE which terminates at Glu-391), and (c) said selected first agent and (d) a second agent known to be tau-tau binding inhibitor, (iii) selecting a first agent which fully or partially relieves the inhibition of binding of the liquid phase tau protein or derivative of (b) to the solid phase tau protein or derivative of (a) by the inhibitor (d).
Similar results are shown for 15 μM DMMB in the presence of increasing concentrations of Primulin (c) and Thiazin Red (d).
For each graph, Tau-Tau binding is shown in the presence of constant concentrations of DMMB co-incubated with Primulin at 0×, 1×, 5×, 10×, 100× the DMMB concentrations shown.
This implies that the Tau-aggregation enhancement effect of these ligands is proportional to the fraction of ligand-binding sites occupied, presumably within the Tau aggregates introduced into the aqueous-phase of the assay. The mean Bmax for both ligands is ˜1.6. That is, the maximum ligand effect is to produce 1.6-fold the Tau-Tau binding signal seen in the absence of any drug. The mean Kd for this effect is ˜15×. That is, for any given concentration of DMMB>4 μM, 50% of maximal enhancement of Tau-Tau binding can be seen when the ligand molar excess is 15-fold relative to the concentration of DMMB.

In the case of `Cc1ccc2sc(-c3ccc4sc(-c5ccc(N)cc5)nc4c3)nc2c1S(=O)(=O)[O-].[Na+]` [primulin], the labelling of tangles (neurofibrillary tangles) is reported as “label tangles”, the activity as ligand (tangle fragments) is reported as “active ligands” and the “competition with / displacement of other ligands at tangles” value (tangle fragments) is reported as “displace this from tangles”. The “competition with / displacement of other ligands at tangles” value (tangle fragments; listed as compound 1a) was “displace compound 1b at tangles”, the “BMax of tau-tau binding” value (tau-tau binding; 5 μM DMMB) was 1.38 and the “BMax of tau-tau binding” value (tau-tau binding; 25 μM DMMB) was 1.67. For the same compound, the “reversal of inhibitory effect of DMMB on tau-tau binding” value (tau-tau binding; co-incubation with increasing molar excess of ligand) was “progressively attenuated and reversed; also recorded: completely reversed”.
